# Source: patent US10538555B2, “Macrocyclic inhibitors of the PD-1/PD-L1 and CD80(B7-1)/PD-L1 protein/protein interactions” (BRISTOL-MYERS SQUIBB COMPANY, priority 2014, dated 2020)
# Where a SMILES comes first, the peptide text is derived from it. Bridges are numbered along the chain shown (N, C = ends). [ ]: non-standard residue; d: D form. ξ: configuration not given here. Trp(1-CH2COOH) = N[C@@H](Cc1cn(CC(=O)O)c2ccccc12)C(=O)O; Phe(3,4,5-F3) = N[C@@H](Cc1cc(F)c(F)c(F)c1)C(=O)O; d(cisHyp) = O=C(O)[C@H]1C[C@@H](O)CN1; Bta = N[C@@H](Cc1csc2ccccc12)C(=O)O; Hyp = O=C(O)[C@@H]1C[C@@H](O)CN1; NMeF = CN[C@@H](Cc1ccccc1)C(=O)O; NMehSer = CN[C@@H](CCO)C(=O)O; NMeNle = CCCC[C@H](NC)C(=O)O; Pip = O=C(O)[C@@H]1CCCCN1; dPip = O=C(O)[C@H]1CCCCN1; hSer = N[C@@H](CCO)C(=O)O; NMeA = CN[C@@H](C)C(=O)O; Aze = O=C(O)[C@@H]1CCN1; Dab = NCC[C@H](N)C(=O)O; Dap = NC[C@H](N)C(=O)O; ξC = NC(CS)C(=O)O; Sar = CNCC(=O)O
# Target: T1, Human PD-L1/PD-1 (Homo sapiens, UniProt Q9NZQ7)
# T1 construct: TVMV protease cleavage site (C); made in house; host or cells: HEK293T cells
# T1 sequence (Q9NZQ7 with tags, fused parts or gaps): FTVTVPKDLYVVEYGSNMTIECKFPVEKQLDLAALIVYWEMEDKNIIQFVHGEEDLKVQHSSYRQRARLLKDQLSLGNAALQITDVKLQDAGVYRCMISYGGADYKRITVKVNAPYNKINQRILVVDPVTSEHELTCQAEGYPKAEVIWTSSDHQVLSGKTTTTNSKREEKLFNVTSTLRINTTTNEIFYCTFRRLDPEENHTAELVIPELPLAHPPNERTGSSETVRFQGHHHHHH
# Experiment: HTRF Human PD-L1/PD-1 binding assay (PD-1-Ig/PD-L1-His)
# Conditions: PD-L1-His 10 nM, PD-1-Ig 20 nM; class symbol; read-out: HTRF Human PD-L1/PD-1 Binding Assay IC50 Range
# How it was run: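 HTRF competition using HEK293T-expressed human PD-1(25-167)-Ig at 20 nM and PD-L1(18-239)-His at 10 nM, compound incubated first with PD-L1 for 15 min, then with PD-1 for 15 min. Signal read as 665/620 nm ratio 30 min after adding Eu anti-Ig and APC anti-His antibodies.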
row,IC50,SMILES
1,1 to 9.9 nM,CCCC[C@H]1C(=O)N(C)[C@@H](CCCC)C(=O)N[C@@H](CC(C)C)C(=O)N[C@H](C(=O)NCC(N)=O)CSCC(=O)N[C@@H](Cc2ccc(OC)cc2)C(=O)N(C)[C@@H](C)C(=O)N[C@@H](CC(N)=O)C(=O)N2CCC[C@H]2C(=O)N[C@@H](CO)C(=O)N[C@@H](CCC(N)=O)C(=O)N2C[C@H](O)C[C@H]2C(=O)N[C@@H](Cc2c[nH]c3ccccc23)C(=O)N[C@@H](CO)C(=O)N[C@@H](Cc2c[nH]c3ccccc23)C(=O)N1C [Example 7136] ({CH2CO}-Y(Me)[NMeA]NPSQ[Hyp]WSW[NMeNle][NMeNle]LCG-NH2; thioether N-14)
2,1000 to 10000 nM,CCCC[C@H]1C(=O)N[C@@H](CC(N)=O)C(=O)N2CCC[C@H]2C(=O)N[C@@H](CO)C(=O)N[C@@H](CCO)C(=O)N2C[C@H](O)C[C@H]2C(=O)N[C@@H](Cc2c[nH]c3ccccc23)C(=O)N[C@@H](CO)C(=O)N[C@@H](Cc2c[nH]c3ccccc23)C(=O)N(C)[C@@H](C)C(=O)N(C)[C@@H](C)C(=O)N[C@@H](CCCCN)C(=O)NC(C(=O)NCC(N)=O)CSCC(=O)N[C@@H](Cc2ccc(O)cc2)C(=O)N1C (stereo partly drawn) [Example 10211] ({CH2CO}-Y[NMeNle]NPS[hSer][Hyp]WSW[NMeA][NMeA]K[ξC]G-NH2; thioether N-14)
3,1 to 9.9 nM,CCCC[C@H]1C(=O)N[C@@H](CCC(=O)O)C(=O)N[C@H](C(=O)NCC(N)=O)CSCC(=O)N[C@@H](Cc2ccc(O)cc2)C(=O)N(C)[C@@H](C)C(=O)N[C@@H](CC(=O)O)C(=O)N2CCC[C@H]2C(=O)N[C@@H](Cc2c[nH]cn2)C(=O)N[C@@H](CCC(N)=O)C(=O)N2C[C@H](O)C[C@H]2C(=O)N[C@@H](Cc2c[nH]c3ccccc23)C(=O)N[C@@H](CO)C(=O)N[C@@H](Cc2c[nH]c3ccccc23)C(=O)N(C)[C@@H](CCOC)C(=O)N1C [Example 10136] ({CH2CO}-Y[NMeA]DPHQ[Hyp]WSW[NMehSer](Me)[NMeNle]ECG-NH2; thioether N-14)
4,1000 to 10000 nM,CCCC[C@H]1C(=O)N[C@@H](CC(N)=O)C(=O)N2CCC[C@H]2C(=O)N[C@@H](CO)C(=O)N[C@@H](CCO)C(=O)N2CCC[C@H]2C(=O)N[C@@H](Cc2c[nH]c3ccccc23)C(=O)N[C@@H](CCN)C(=O)N[C@@H](Cc2c[nH]c3ccccc23)C(=O)N(C)[C@@H](C)C(=O)N(C)[C@@H](C)C(=O)N[C@@H](CCCNC(=N)N)C(=O)NC(C(=O)NCC(N)=O)CSCC(=O)N[C@@H](Cc2ccc(O)cc2)C(=O)N1C (stereo partly drawn) [Example 10203] ({CH2CO}-Y[NMeNle]NPS[hSer]PW[Dab]W[NMeA][NMeA]R[ξC]G-NH2; thioether N-14)
5,1 to 9.9 nM,CCCC[C@H]1C(=O)N(C)[C@@H](CCCC)C(=O)N[C@@H](CCCNC(=N)N)C(=O)NC(C(=O)NCC(N)=O)CSCC(=O)N[C@@H](Cc2ccc(O)cc2)C(=O)N(C)[C@@H](C)C(=O)N[C@@H](CC(N)=O)C(=O)N2CCC[C@H]2C(=O)N[C@@H](CO)C(=O)N[C@@H](CCO)C(=O)N2CCC[C@H]2C(=O)N[C@@H](Cc2c[nH]c3ccccc23)C(=O)N[C@@H](CO)C(=O)N[C@@H](Cc2c[nH]c3ccccc23)C(=O)N1C (stereo partly drawn) [Example 10036] ({CH2CO}-Y[NMeA]NPS[hSer]PWSW[NMeNle][NMeNle]R[ξC]G-NH2; thioether N-14)

# Second part, the compound before the results:
row,SMILES,IC50
1,"CCCC[C@H]1C(=O)N(C)CC(=O)N[C@@H](CC(=O)O)C(=O)N[C@@H](C(C)C)C(=O)N(C)[C@@H](Cc2ccccc2)C(=O)N[C@@H](Cc2ccc(O)cc2)C(=O)N(C)CC(=O)NC(C)(Cc2c[nH]c3ccccc23)C(=O)N[C@@H](Cc2ccc(O)cc2)C(=O)N[C@@H](CC(C)C)C(=O)N[C@H](C(=O)NCC(N)=O)CSCC(=O)N[C@@H](Cc2ccccc2)C(=O)N(C)[C@@H](Cc2ccccc2)C(=O)N1C (single isomer, unassigned) [Example 3640-B]",100 to 990 nM
2,"CCCC[C@H]1C(=O)N2CCC[C@@H]2C(=O)N2CC[C@H]2C(=O)N[C@@H](C(C)C)C(=O)N(C)[C@@H](Cc2ccccc2)C(=O)N[C@@H](Cc2ccc(O)cc2)C(=O)N2CCCC[C@@H]2C(=O)N[C@@H](Cc2c[nH]c3ccccc23)C(=O)N[C@@H](Cc2ccc(O)cc2)C(=O)N[C@@H](CC(C)C)C(=O)N[C@H](C(=O)NCC(N)=O)CSCC(=O)N[C@@H](Cc2cc(F)c(F)c(F)c2)C(=O)N(C)[C@@H](Cc2ccccc2)C(=O)N1C [Example 3221] ({CH2CO}-[Phe(3,4,5-F3)][NMeF][NMeNle][dP][Aze]V[NMeF]Y[dPip]WYLCG-NH2; thioether N-13)",10 to 99.9 nM
3,CCCC[C@H]1C(=O)N(C)CC(=O)N[C@@H](CC(=O)O)C(=O)N[C@@H](C(C)C)C(=O)N(C)[C@@H](Cc2ccccc2)C(=O)N[C@@H](Cc2c[nH]c3ccccc23)C(=O)N(C)CC(=O)N[C@@H](Cc2c[nH]c3ccccc23)C(=O)N[C@@H](Cc2ccc(O)cc2)C(=O)N[C@@H](CC(C)C)C(=O)N[C@H](C(=O)NCC(N)=O)CSCC(=O)N[C@@H](Cc2ccccc2)C(=O)N(C)[C@@H](Cc2ccccc2)C(=O)N1C [Example 3231] ({CH2CO}-F[NMeF][NMeNle][Sar]DV[NMeF]W[Sar]WYLCG-NH2; thioether N-13),1 to 9.9 nM
4,CCCC[C@H]1C(=O)N(C)[C@@H](CCCC)C(=O)N[C@@H](CN)C(=O)N[C@H](C(N)=O)CSCC(=O)N[C@@H](Cc2ccc(O)cc2)C(=O)N(C)[C@@H](C)C(=O)N[C@@H](CC(N)=O)C(=O)N2CCC[C@H]2C(=O)N[C@@H](CN)C(=O)N[C@@H](CC(C)C)C(=O)N2C[C@H](O)C[C@H]2C(=O)N[C@@H](Cc2c[nH]c3ccccc23)C(=O)N[C@@H](CO)C(=O)N[C@@H](Cc2cn(CC(=O)O)c3ccccc23)C(=O)N1C [Example 6140],1 to 9.9 nM
5,CCCC[C@H]1C(=O)N(C)[C@@H](CCCC)C(=O)N[C@@H](CO)C(=O)N[C@H](C(=O)NCC(N)=O)CSCC(=O)N[C@@H](Cc2ccc(O)cc2)C(=O)N(C)[C@@H](C)C(=O)N[C@@H](CC(=O)O)C(=O)N2CCC[C@H]2C(=O)N[C@@H](CO)C(=O)N[C@@H](CC(C)C)C(=O)N2C[C@H](O)C[C@H]2C(=O)N[C@@H](Cc2c[nH]c3ccccc23)C(=O)N[C@@H](CO)C(=O)N[C@@H](Cc2cn(CC(=O)O)c3ccccc23)C(=O)N1C [Example 6274] ({CH2CO}-Y[NMeA]DPSL[Hyp]WS[Trp(1-CH2COOH)][NMeNle][NMeNle]SCG-NH2; thioether N-14),1 to 9.9 nM
6,"CCCC[C@H]1C(=O)N2C[C@H](O)C[C@@H]2C(=O)N[C@@H](CC(=O)O)C(=O)N[C@@H](C(C)C)C(=O)N(C)[C@@H](Cc2ccccc2)C(=O)N[C@@H](CCC(=O)O)C(=O)N2CCC[C@@H]2C(=O)N[C@@H](Cc2c[nH]c3ccccc23)C(=O)N[C@@H](Cc2ccc(O)cc2)C(=O)N[C@@H](CCO)C(=O)N[C@H](C(=O)NCC(N)=O)CSCC(=O)N[C@@H](Cc2cc(F)c(F)c(F)c2)C(=O)N(C)[C@@H](Cc2ccccc2)C(=O)N1C [Example 10154] ({CH2CO}-[Phe(3,4,5-F3)][NMeF][NMeNle][d(cisHyp)]DV[NMeF]E[dP]WY[hSer]CG-NH2; thioether N-13)",1 to 9.9 nM
7,CCCC[C@H]1C(=O)N(C)[C@@H](CCCC)C(=O)N[C@@H](C)C(=O)N[C@H](C(=O)NCC(N)=O)CSCC(=O)N[C@@H](Cc2ccc(O)cc2)C(=O)N2CCCC[C@H]2C(=O)N[C@@H](CC(=O)O)C(=O)N2CCC[C@H]2C(=O)N[C@@H](CN)C(=O)N[C@@H](CCC(=O)O)C(=O)N2C[C@H](O)C[C@H]2C(=O)N[C@@H](Cc2c[nH]c3ccccc23)C(=O)N[C@@H](CO)C(=O)N[C@@H](Cc2csc3ccccc23)C(=O)N1C [Example 1510] ({CH2CO}-Y[Pip]DP[Dap]E[Hyp]WS[Bta][NMeNle][NMeNle]ACG-NH2; thioether N-14),1 to 9.9 nM
